Eight molecules from the NIST ThermoML archive (doi:10.1021/je0301085) can be followed below.

± gives the expanded uncertainty stated by the source.

The conditions of data set [1]: Liquid; for mass density: 101.33 kPa.
Data set [2] in a line: refractive index (Na D-line) (dimensionless). The settings on record: 101.33 kPa, Liquid, Standard Abbe refractometry.

Consider `CCCCCCC` [heptane], for which, in data set [1] (298.15 K), the mass density stood at 679.5 ± 5 kg/m3. The “vapor or sublimation pressure” value in data set [1] (369.75 K) and in data set [1] (369.78 K) was 95.8 ± 0.3 kPa throughout. Moreover, the refractive index in data set [2] (298.15 K) is 1.3851 ± 0.0007.

Consider `ClC(Cl)C(Cl)Cl` [1,1,2,2-tetrachloroethane], for which, in data set [1] (298.15 K), the mass density was 1587 ± 5 kg/m3. Also, the “vapor or sublimation pressure” value in data set [1] (416.95 K) was determined as 94.6 ± 0.2 kPa; in data set [1] (417.35 K), 95.8 ± 0.2 kPa. Besides, the refractive index in data set [2] (298.15 K) was 1.494 ± 0.0007.

Take `CC(Cl)(Cl)Cl` [1,1,1-trichloroethane]: the mass density in data set [1] (298.15 K) worked out at 1330 ± 5 kg/m3. The “vapor or sublimation pressure” value in data set [1] (345.25 K) turned out to be 94.6 ± 0.3 kPa; in data set [1] (345.35 K) it was 94.6 ± 0.2 kPa; in data set [1] (345.65 K), 95.8 ± 0.3 kPa. In addition, the refractive index in data set [2] (298.15 K) was 1.436 ± 0.0007.

For `ClCCCl` [1,2-dichloroethane], in data set [1] (298.15 K), the mass density is given as 1247 ± 5 kg/m3. Besides, the entries for the “vapor or sublimation pressure” value in data set [1] (354.95 K), in data set [1] (355.05 K) and in data set [1] (355.25 K) were 94.6 ± 0.3 kPa, 94.6 ± 0.3 kPa and 95.8 ± 0.3 kPa, respectively. In addition, the refractive index in data set [2] (298.15 K) turned out to be 1.4421 ± 0.0007.

Consider `ClC(Cl)=C(Cl)Cl` [tetrachloroethene], for which the mass density in data set [1] (298.15 K) is 1615 ± 5 kg/m3. In addition, the “vapor or sublimation pressure” value in data set [1] (391.25 K) was determined as 94.6 ± 0.2 kPa; in data set [1] (391.65 K) it was 95.8 ± 0.2 kPa. Further, in data set [2] (298.15 K), the refractive index is on record as 1.505 ± 0.0007.

For `O=[N+]([O-])c1ccccc1` [nitrobenzene], the mass density in data set [1] (298.15 K) was found to be 1198 ± 5 kg/m3. In addition, the “vapor or sublimation pressure” value in data set [1] (481.15 K) worked out at 94.6 ± 0.3 kPa. The refractive index in data set [2] (298.15 K) stood at 1.55 ± 0.001.

With `ClC=C(Cl)Cl` [trichloroethene], the mass density in data set [1] (298.15 K) is reported as 1464 ± 5 kg/m3. Moreover, the “vapor or sublimation pressure” value in data set [1] (358.25 K) is on record as 94.6 ± 0.3 kPa; in data set [1] (358.55 K), 95.8 ± 0.3 kPa. Moreover, in data set [2] (298.15 K), the refractive index came out at 1.4782 ± 0.0007.

Regarding `Clc1ccccc1` [chlorobenzene], the mass density in data set [1] (293.15 K) was found to be 1106 ± 5 kg/m3. For the same molecule, in data set [1] (402.55 K), the “vapor or sublimation pressure” value was 94.6 ± 0.3 kPa. Moreover, the refractive index in data set [2] (293.15 K) is reported as 1.5248 ± 0.0007.
